This note sets out measurements from patent publication US20100285146A1, “PEPTIDES AND METHODS FOR THE TREATMENT OF SYSTEMIC LUPUS ERYTHEMATOSUS” (priority 2007, published 2010).

No end group written: not given here.

Assay [1] addresses 5101 peptide (Res. 1-16 of 5100) (mouse). Kind of assay: direct binding ELISA, peptide-coated wells, read after two hours.
The target of assay [2] is 5200 peptide (R38′), mouse R38 analog. Described as above.
Assay [3] has as its target 5102 peptide (Res. 6-17 of 5100) (mouse). The description is as above.
Assay [4] concerns the target 5300 peptide, human R38 (human). The assay is described as above.
Assay [5] deals with R38 peptide (5100), mouse R38 (mouse). Described as above.
In assay [6] the test system is C72 murine anti-DNA antibody. Kind of assay: Competitive inhibition of the binding of C72 to 5200. Particulars: after incubation of C72 with the inhibiting agent. As to the method:
The binding of C72 to 5200 was tested before and after incubation with 5200, R38, R18, Heparin, DNA and DNase. […] The percent inhibition is the percent reduction of the O.D. after incubation with the inhibiting agent.

The test system of assay [7] is BALB/c urinary immunoglobulins. Kind of assay: Binding of murine urinary immunoglobulins, BALB/c control urine. Particulars: pooled urine of BALB/c control mice. As to the method:
(§1) Wells were coated with 10 μg/ml of the peptides, blocked with 1% BSA (bovine serum albumin) in PBS (pH 7.4), reacted with appropriately diluted plasma or monoclonal antibodies, incubated with anti-human or anti-mouse immunoglobulin enzyme conjugated to alkaline phosphatase and detected by addition of substrate (Sigma 100 Phosphatase Substrate Tablets) and color development using an Organon Teknika Microwell System spectrometer at wavelength of 405 nm.
(§2) Thus, pooled urine from at least 5 mice (either MRL/1pr/1pr or control mice, e.g. BALB/c) was added to wells coated with R38′ (5200), R18 or DNA as described above and bound 5200 assayed by ELISA.
(§3) Each group is comprised of pooled urine.

The test system of a further assay is MRL/1pr/1pr mice. Kind of assay: Clinical course of murine SLE (survival, renal histology). Format: in vivo. Particulars: for renal histology by light microscopy: two mice sacrificed after 5 months, controls severe diffuse proliferative glomerulonephritis. As to the method: To test whether R38 peptides can affect the course of SLE we have tested their effect on MRL/1pr/1pr mice disease. 60 μg of 5200 (R38′ alone or in peptide combinations, 30 μg of each) in 0.1 ml PBS, was injected i.p. to 6 week old female MRL/1pr/1pr mice once a week for 16 weeks and the mice were evaluated for survival (FIG. 8), and for renal histology.
50 μg of 5100 (R38) or 5300 (human R38) in 0.1 ml PBS, was injected i.p. to 6 week old MRL/1pr/1pr mice three times a week and the mice were evaluated for survival (FIG. 9), and for renal histology. Control mice received 0.1 ml phosphate buffer solution. Each test and control group contained 12-15 mice.
The survival of MRL/1pr/1pr mice treated with 5100, 5200 or 5300 was compared to that of PBS treated mice. […] In FIGS. 8 and 9 the time in days shown on the x axis relates to the age of the mice. Two mice in each group were sacrificed after 5 months and their kidneys evaluated by light microscopy.

Assay [8] deals with anti-HEL Hy5 control murine antibody. Kind of assay: Direct binding ELISA with control murine antibody. Particulars: data not shown. The protocol:
as §1
(§4) The interaction of the C72 murine anti-DNA antibody with laminin peptides was analyzed by ELISA as described above. The C72 conditioned medium was diluted in PBS in various dilutions.

Assay [9] has as its system human monoclonal anti-DNA antibody DIL 6. In words: Anti-peptide direct binding ELISA with DIL6. As to the method: as §1
(§5) The human monoclonal anti-DNA antibodies DIL 6 and B3 were derived from lupus patients by the hybridoma technique. […] In FIGS. 3 and 4, the peptides are referred to as denoted above or as follows; AS30 is R27, AS19 is R35, AS35 is R26, AS17 is R28 and AS6 is R18.

Assay [10] deals with urine antibodies of lupus patients. In words: Urine anti-peptide antibody ELISA in patients. Format: binding, human.
In assay [11] the test system is C72 murine anti-DNA antibody. Kind of assay: Anti-peptide direct binding ELISA with C72. Particulars: for C72 Binding: direct binding ELISA, footnote: O.D. after one (1) hour. The protocol:
as §1, §4
(§6) The peptides of the present invention were tested for their ability to bind directly with C72 murine anti-DNA antibodies and B3 human anti-DNA antibodies according to the method described hereinabove.

The target of a further assay is C72 anti-DNA antibody. In words: Competitive inhibition of C72 binding to R38 (5100). More on the design: species or system murine. Particulars: concentration of competitive inhibitor giving 50% inhibition, ELISA. The source says: A competitive inhibition study compared how each of the peptides competes with R38 (5100) for binding to the C72 anti-DNA antibody. Conducted according to the methods described hereinabove, the results of the study are disclosed in Table 4 below and are further elucidated by reference to FIG. 10.

For assay [12], the system named is B3 human anti-DNA antibodies. In words: Anti-peptide direct binding ELISA with B3. Particulars: for B3 Binding: direct binding ELISA, footnote: O.D. after two (2) hours. The protocol:
as §1, §5, §6

Assay [13] relates to MRL/1pr/1pr urine antibodies. In words: Binding of murine urinary immunoglobulins, MRL/1pr/1pr urine. More on the design: species or system mice. As to the method: as §1, §2, §3
Assay [14] concerns urine antibodies of lupus patients. Kind of assay: Urine anti-peptide antibody ELISA in patients. Particulars: Example 5. Format: binding, human. The protocol: as §1
Activity of the disease was evaluated also by accepted clinical and serological parameters (Lockshin M. D. et al. Am. J. Med (1984) 77 893-898) and their correlation with anti-R38 levels was compared. 103 urine samples of 37 SLE patients were tested for anti-R38 activity by ELISA as described above. 23 of the samples were from patients without renal disease and 80 samples from patients with renal disease. A further 12 samples from patients with renal disease not related to SLE were also included.

A further assay concerns C72 antibody. In words: Affinity absorption on R38 column, C72 sample. Format: binding, mouse. As to the method:
(§7) The R38 peptide was dissolved in the coupling buffer (0.2M NaHCO3, 0.5M NaCl, pH 8.3) in a concentration of 1 mg/ml in 5 ml coupling buffer. A 5 ml N-hydroxysuccinimide (NHS)-activated Sepharose™ High Performance Column (Pharmacia 17-0717-01) is used. The isopropanol in the column was washed out from the column with 30 ml of cold (4° C.) 1 mM HCl and 5 ml of the peptide solution was then injected onto the column with a syringe (2.5 ml/minute). The column was sealed and stood for 30 minutes at room temperature. The column was then washed with 30 ml Buffer A (0.5 M ethanolamine, 0.5 M NaCl, pH 8.3) and 30 ml Buffer B (0.5 M acetate, 0.5 M NaCl, pH 4) consecutively three times, and then with neutral pH buffer (0.05 M Na2HPO4 and 0.1% NaN3).
The column was washed with 15 ml PBS (phosphate buffered saline), followed by 15 ml elution buffer (0.1 M glycine HCl) and then 50 ml PBS. The C72 antibody or the patients' plasma samples were filtered through a 0.45 microm filter. The samples were applied onto the column by a fitted syringe at a rate of 2.5 ml/min. The column was then washed with 5 ml PBS and the flow-through was applied to the column again. […]
(§8) In the instant example, the mouse C72 and the SLE patients' plasma were applied to the R38 column. Their anti-R38 binding was evaluated by ELISA in the original samples and in the flow-through of the column.

The subject of assay [15] is anti-R38 antibodies in human plasma. In words: Affinity absorption on R38 column, human plasma samples. Format: binding. Particulars: for Binding to R38 (O.D.), Original sample: before column; for Binding to R38 (O.D.), After immunoabsorption: flow-through of R38 column. As to the method:
as §7
The column was washed with 15 ml PBS (phosphate buffered saline), followed by 15 ml elution buffer (0.1 M glycine HCl) and then 50 ml PBS. The C72 antibody or the patients' plasma samples were filtered through a 0.45 microm filter. The samples were applied onto the column by a fitted syringe at a rate of 2.5 ml/min. The column was then washed with 5 ml PBS and the flow-through was applied to the column again. The binding of the samples (original and flow-through) to R38 was tested by the anti-R38 ELISA test.
as §8

Chain of 5300 peptide, human R38 (human) (peptide, as listed by the source): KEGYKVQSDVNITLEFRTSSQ
Chain of 5200 peptide (R38′), mouse R38 analog (peptide, as listed by the source): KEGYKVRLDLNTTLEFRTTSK

On to B3 human monoclonal anti-DNA antibody, for which the O.D. in a direct binding ELISA in assay [1] worked out at 0.1 O.D; in assay [2], 0.25 O.D; in [3], 0.02 O.D; in assay [4], 0.03 O.D; in assay [5], 0.9 O.D.

As for `CC(C)C[C@H](NC(=O)[C@H](CC(=O)O)NC(=O)[C@H](CC(C)C)NC(=O)[C@H](CCCNC(=N)N)NC(=O)[C@@H](NC(=O)[C@H](CCCCN)NC(=O)[C@H](Cc1ccc(O)cc1)NC(=O)CNC(=O)[C@H](CCC(=O)O)NC(=O)[C@@H](N)CCCCN)C(C)C)C(=O)N[C@@H](CC(N)=O)C(=O)N[C@H](C(=O)N[C@H](C(=O)N[C@@H](CC(C)C)C(=O)N[C@@H](CCC(=O)O)C(=O)N[C@@H](Cc1ccccc1)C(=O)N[C@@H](CCCNC(=N)N)C(=O)N[C@H](C(=O)N[C@H](C(=O)N[C@@H](CO)C(=O)N[C@@H](CCCCN)C(=O)O)[C@@H](C)O)[C@@H](C)O)[C@@H](C)O)[C@@H](C)O` (stereo in doubt) [Peptide 5200], the “inhibition of the binding of C72 to 5200 (FIG. 2)” value in assay [6] was “inhibition”. Moreover, the “Binding of murine urinary immunoglobulins to antigen” value is given as “U.D” in assay [7] and 0.26(*) O.D. at 405 nm in assay [13] (pooled urine of MRL/1pr/1pr mice). The “survival versus PBS control mice (FIG. 8)” value with MRL/1pr/1pr mice (60 μg i.p. once a week for 16 weeks, 6 week old female mice) is reported as “significantly higher”. Besides, the “renal histology by light microscopy” value in the assay with MRL/1pr/1pr mice (60 μg i.p. once a week) is “mild proliferative changes with no crescents and no sclerosis”. Also, the “binding of control antibody anti-HEL Hy5” value in assay [8] is recorded as “did not bind”. Moreover, the “binding of DIL 6 to laminin peptides (FIGS. 3 and 4)” value in assay [9] is on record as “bind”. Also, the “Urine anti-5200 O.D. (Mean + S.E.)” value in assay [10] (Example 6, renal disease absent, 46 samples) was 0.05 ± 0.005 O.D; in assay [10] (Example 6, renal disease present, 132 samples, p < 0.001) it was 0.335 ± 0.035 O.D; in [10] (Example 8, renal disease absent, 6 samples) it was 0.052 ± 0.03 O.D; in assay [10] (Example 8, renal disease present, 46 samples) it was 0.431 ± 0.09 O.D. Also, the “binding of C72 murine anti-DNA antibody to laminin peptides (FIG. 1)” value in assay [11] (ELISA, C72 conditioned medium in various dilutions) was “binding”. In addition, the “C72 Binding” value in assay [11] is reported as 1.8 O.D. Moreover, the “50% Inhibition of C72 binding to mouse R38 (5100)” value at C72 anti-DNA antibody is 10 µg/mL. Further, the “binding of B3 to laminin peptides (FIGS. 3 and 4)” value in assay [12] is “bind”. Further, the “B3 Binding” value in assay [12] was 0.25 O.D. The “interaction of MRL/1pr/1pr urine antibodies with peptide” value in assay [13] (direct binding ELISA) is listed as “specific binding”.

On to KEGYKVRLDLNITLEFRTTSK [Peptide 5100], for which the “Urine anti-R38 O.D. (Mean + S.E.)” value stood at 0.07 ± 0.01 O.D in assay [14] (SLE absent, renal disease present, 12 samples); 0.035 ± 0.003 O.D in [14] (SLE present, renal disease absent, 23 samples); 0.229 ± 0.03 O.D in assay [14] (SLE present, renal disease present, 80 samples, p < 0.001). For the same molecule, in assay [6], the “inhibition of the binding of C72 to 5200 (FIG. 2)” value is given as “inhibition”. Moreover, the “survival versus PBS control mice (FIG. 9)” value in the assay on MRL/1pr/1pr mice (50 μg i.p. three times a week, 6 week old mice) is “significantly higher”. In addition, in the assay on MRL/1pr/1pr mice (50 μg i.p. three times a week), the “renal histology by light microscopy” value is “mild proliferative changes with no crescents and no sclerosis”. For the same molecule, the “Urine anti-5100 O.D. (Mean + S.E.)” value in assay [10] (Example 7, renal disease absent, 6 samples) was 0.058 ± 0.006 O.D; in assay [10] (Example 7, renal disease present, 39 samples, p < 0.03), 0.376 ± 0.05 O.D. For the same molecule, in assay [11], the “C72 Binding” value is listed as 2.57 O.D. Moreover, the “Binding to R38 (O.D.), Original sample” value in the assay on C72 antibody (sample C72, before column) stood at 1.96 O.D; in assay [15] (Healthy donor's plasma), 0.26 O.D; in [15] (SLE patient 1 plasma) it was 1.5 O.D; in [15] (SLE patient 2 plasma), 2.3 O.D. Further, the “Binding to R38 (O.D.), After immunoabsorption” value with C72 antibody (sample C72, flow-through of R38 column) came out at 0.02 O.D; in assay [15] (Healthy donor's plasma), 0.06 O.D; in assay [15] (SLE patient 1 plasma), 0.6 O.D; in [15] (SLE patient 2 plasma), 1.6 O.D. Besides, the “50% Inhibition of C72 binding to mouse R38 (5100)” value on C72 anti-DNA antibody was 10 µg/mL. The “B3 Binding” value in assay [12] was determined as 0.9 O.D.
